Measurements reported in patent US20080287481A1, “PROCESS FOR THE PREPARATION OF DES[…] MIXTURES” (priority 2006, published 2008).

Conditions: all storage conditions of the table; consistency in the IR pattern
Excerpt: The term “stable” is used to describe an intimate mixture of desloratadine Form I and Form II that maintains the initial weight ratio of forms during formulation into a pharmaceutical dosage form and thereafter during a commercially useful period of normal storage and use, such as about one year, about 18 months, about two years, or any other desired period. […] Stability testing procedures are well known in the pharmaceutical industry.

Clc1ccc2c(c1)CCc1cccnc1C2=C1CCNCC1 [8-chloro-6,11-dihydro-11-(4-piperidylidene)-5H-benzo[5,6]cyclohepta[1,2-b]pyridine]
interconversion of forms during the storage period: no interconversion of forms
